According to patent US9340523B2, “Certain dipeptidyl peptidase inhibitors” (FOCHON PHARMA, INC., priority 2009, dated 2016):

What follows are compounds tested against Recombinant human DPP-IV (Homo sapiens, UniProt P27487) (assay: DPP-IV assay in vitro (H-Ala-Pro-AFC fluorescence)). Conditions: recombinant human DPP-IV 7.8 ng/ml, 30 min pre-incubation, H-Ala-Pro-AFC 50 μM.
Assay type: biochemical
Experimental: DPP-IV Assay Solutions of test compounds in varying concentrations (10^−5 mol/L, 10^−6 mol/L, 10^−7 mol/L, 10^−8 mol/L, 10^−9 mol/L, 10^−10 mol/L, 10^−11 mol/L, and 10^−12 mol/L) were prepared in dimethyl sulfoxide (DMSO) and then diluted into assay buffer comprising: 10 mM Tris-HCl pH 8.0, 0.2 M NaCl, and 0.1% BSA. Recombinant human DPP-IV (7.8 ng/ml final concentration) was added to the dilutions and pre-incubated for 30 mins at room temperature before the reaction was initiated with H-Ala-Pro-AFC (50 μM final concentration). The total volume of the reaction mixture was 100 μl.
The fluorescence of the mixture was measured after 30 minutes (excitation at 405 nm; emission at 535 nm). Inhibition constants (IC50) were calculated by GraphPad Prism.

Sequence of Recombinant human DPP-IV (P27487 whole entry): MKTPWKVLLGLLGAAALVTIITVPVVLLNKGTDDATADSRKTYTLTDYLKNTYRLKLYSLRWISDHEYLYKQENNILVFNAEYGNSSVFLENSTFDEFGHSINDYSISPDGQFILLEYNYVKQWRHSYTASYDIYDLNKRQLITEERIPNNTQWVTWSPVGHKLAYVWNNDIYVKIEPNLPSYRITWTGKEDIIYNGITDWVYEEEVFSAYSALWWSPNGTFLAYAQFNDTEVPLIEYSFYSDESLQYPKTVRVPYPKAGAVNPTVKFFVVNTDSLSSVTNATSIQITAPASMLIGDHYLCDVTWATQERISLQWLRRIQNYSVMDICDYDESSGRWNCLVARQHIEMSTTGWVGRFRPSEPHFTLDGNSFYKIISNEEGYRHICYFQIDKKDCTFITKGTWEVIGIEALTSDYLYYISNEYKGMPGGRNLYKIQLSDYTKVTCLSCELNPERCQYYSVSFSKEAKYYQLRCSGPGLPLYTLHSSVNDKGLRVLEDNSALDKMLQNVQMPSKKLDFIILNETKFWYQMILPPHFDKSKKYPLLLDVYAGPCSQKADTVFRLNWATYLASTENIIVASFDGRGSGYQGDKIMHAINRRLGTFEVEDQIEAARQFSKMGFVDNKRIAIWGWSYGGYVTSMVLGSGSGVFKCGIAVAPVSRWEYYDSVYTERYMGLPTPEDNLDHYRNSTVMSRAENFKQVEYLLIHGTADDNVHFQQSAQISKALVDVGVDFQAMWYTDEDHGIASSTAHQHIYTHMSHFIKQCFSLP

IC50	Structure (SMILES)
22 nM	Cc1nnc(N2CCC[C@@H](N)C2)n(Cc2ccccc2C#N)c1=O [Example 1, (R)-2-((3-(3-aminopiperidin-1-yl)-6-methyl-5-oxo-1,2,4-triazin-4(5H)-yl)methyl)benzonitrile]
242 nM	Cc1nnc(N2CCC[C@@H](N)C2)n(Cc2cc(F)ccc2Br)c1=O [Example 2, (R)-3-(3-aminopiperidin-1-yl)-4-(2-bromo-5-fluorobenzyl)-6-methyl-1,2,4-triazin-5(4H)-one]
640 nM	Cc1nnc(N2CCC[C@@H](N)C2)n(Cc2cc(F)ccc2Cl)c1=O [Example 4, (R)-3-(3-aminopiperidin-1-yl)-4-(2-chloro-5-fluorobenzyl)-6-methyl-1,2,4-triazin-5(4H)-one]
